Where a name gives a salt, the structure may show the parent alone. Read-outs that look alike come from different tables or passages of the source.
System: distal portion of colon of rat
Test: Inhibition of acetylcholine-induced contraction of isolated rat colon (antispasmodic activity)
Settings: for Percentage inhibition of Ach (100 ng/ml) -Induced contraction After Diclofenac Na: in presence of Diclofenac Sodium 20µ/ml; for inhibition at 0.01 µg/mL: Pitofenone Hcl dose 10 ng/ml; for inhibition at 0.02 µg/mL: Pitofenone Hcl dose 20 ng/ml; for inhibition at 0.04 µg/mL: Pitofenone Hcl dose 40 ng/ml; for inhibition at 0.08 µg/mL: Pitofenone Hcl dose 80 ng/ml
Protocol: In order to see the effect of NSAID on the Antispasmodic activity of Pitifenone hydrochloride and Fenpiverinium bromide an experiment was conducted on standard isolated tissues of experimental animal. The tissue chosen for the experiment was the distal portion of colon of rat. The NSAID selected for the experiment was Diclofenac Sodium.
The percentage inhibition of Acetylcholine - induced contraction (at dosage level of 100ng/m) was studied with varied concentration of Pitofenone Hydrochloride in the dose range of 10-80 nano gm/ml.
The percentage inhibition of Acetylcholine -induced contraction (at dosage level of 100ng/ml) was studied with varied concentration of Fenpiverinium bromide in the dose range of 0.5-2 ng/ml.
The experiment was then conducted at the same dose level of Acetylcholine and Fenpiverinium bromide but in the presence of Diclofenac Sodium (dose level 20µ gm/ml). The data obtained in the experiment is collected in Table -2.

[1] = Fenpiverinium Bromide dose 0.5 (ng/ml)
[2] = Fenpiverinium Bromide dose 1.0 (ng/ml)
[3] = Fenpiverinium Bromide dose 2.0 (ng/ml)
[4] = in presence of Diclofenac Sodium 20 µg/ml, read-out: Percentage inhibition of Ach (100 ng/ml) -induced contraction After Diclofenac Na
[5] = read-out: Percentage inhibition of Ach (100 ng/ml) -induced contraction Before Diclofenac Na

Which “action with Fenpiverinium bromide as an Antispasmodic” value (Diclofenac Sodium 20 µg/ml) does the source give for `O=C(O)Cc1ccccc1Nc1c(Cl)cccc1Cl` [Diclofenac, Diclofenac Sodium] here?
The value was “synergistic (potentiating) action”.

What about the “action with Pitofenone Hydrochloride as an Antispasmodic” value (Diclofenac Sodium 20 µg/ml) of the same compound?
The value was “synergistic (potentiating) action”.

Which results are given for `C[N+]1(CCC(C(N)=O)(c2ccccc2)c2ccccc2)CCCCC1` [Fenpiverinium Bromide, Fenpiverinium bromide]?
Percentage inhibition of Ach (100 ng/ml) -Induced contraction Before Diclofenac Na [1]: 43.8%; Percentage inhibition of Ach (100 ng/ml) -Induced contraction After Diclofenac Na [1]: 100%; Percentage inhibition of Ach (100 ng/ml) -Induced contraction Before Diclofenac Na [2]: 78.7%; Percentage inhibition of Ach (100 ng/ml) -Induced contraction After Diclofenac Na [2]: 100%; Percentage inhibition of Ach (100 ng/ml) -Induced contraction Before Diclofenac Na [3]: 100%; Percentage inhibition of Ach (100 ng/ml) -Induced contraction After Diclofenac Na [3]: 100%

Which results are given for `COC(=O)c1ccccc1C(=O)c1ccc(OCCN2CCCCC2)cc1` [Pitofenone Hcl, Pitofenone Hydrochloride]?
inhibition at 0.01 µg/mL [4]: 100%; inhibition at 0.01 µg/mL [5]: 0%; inhibition at 0.02 µg/mL [4]: 100%; inhibition at 0.02 µg/mL [5]: 0%; inhibition at 0.04 µg/mL [4]: 100%; inhibition at 0.04 µg/mL [5]: 0%; inhibition at 0.08 µg/mL [4]: 100%; inhibition at 0.08 µg/mL [5]: 20.2%
